# Measured values taken from patent US12485179B2, “Cholecystokinin B receptor targeting for imaging and therapy” (Purdue Research Foundation, priority 2012, dated 2025).
# What was measured:
# CCK2i4svR = target: T1, CCK2i4svR (Homo sapiens, UniProt P32239); assay: Binding of 99mTc conjugates to HEK CCK2i4svR cells (cell bound radioactivity)
# T1 construct: expressed in transfected cells; host or cells: HEK-293, G418-selected, from Dr. Mark Hellmich (University of Texas at Galveston)
# T1 sequence (P32239 1-516 isoform P32239-2): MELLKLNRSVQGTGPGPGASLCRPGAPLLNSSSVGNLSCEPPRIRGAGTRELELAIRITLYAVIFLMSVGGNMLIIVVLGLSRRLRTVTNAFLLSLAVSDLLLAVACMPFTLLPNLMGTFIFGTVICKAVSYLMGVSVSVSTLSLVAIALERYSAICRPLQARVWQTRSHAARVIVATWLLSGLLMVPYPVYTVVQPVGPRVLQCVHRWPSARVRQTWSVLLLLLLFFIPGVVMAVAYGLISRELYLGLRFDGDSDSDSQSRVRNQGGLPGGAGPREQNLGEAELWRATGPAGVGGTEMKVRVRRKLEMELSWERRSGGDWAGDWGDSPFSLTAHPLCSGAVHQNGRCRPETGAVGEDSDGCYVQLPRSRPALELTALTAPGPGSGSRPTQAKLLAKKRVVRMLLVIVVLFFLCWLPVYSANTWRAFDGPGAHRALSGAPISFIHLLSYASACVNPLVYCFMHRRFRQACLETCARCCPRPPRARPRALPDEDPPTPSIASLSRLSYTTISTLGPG
# Method: (§1) CRL-1, CRL-2, CRL-3 and CRL-4 were chelated to ^99mTc and tested for binding using two transfected cell lines of HEK-CCK2R (HEK-293 CCK2R) and HEK-CCK2R splice cell line (HEK CCK2i4svR), obtained from Dr. Mark Hellmich (University of Texas at Galveston). Cells were cultured in Dulbecco's modified Eagles (Gibco) supplemented with 10% Fetal Bovine Serum and G418 disulfate (SIGMA; 400 μg/ml), 1% penicillin/streptomycin at 37° C. in a humidified 95% air, 5% CO2 atmosphere.
# (§2) Competition studies were performed using 100 fold excess of free Z-360 containing corresponding peptide linker and no chelating moiety. HEK 293 CCK2R and HEK CCK2i4svR were seeded onto 24 well plates and allowed to become confluent over 48-72 hours. Spent medium in each well was replaced with 0.5 ml fresh media containing 0.5% BSA and increasing concentrations of the test article. After incubating for 1 h at 37° C. cells were rinsed with incubation solution (2×1.0 ml) to remove any unbound radioactivity. Cells were then resuspended on 0.5 ml 0.25N NaOH and cell radioactivity was counted using a γ-counter. The dissociation constant (KD) was calculated using a plot of cell bound radioactivity versus the concentration of the radiotracer using Graphpad Prism 4 and assuming a non-cooperative single site binding equilibrium.
# HEK CCK2i4svR tumors = assay: In vivo radio-imaging and bio-distribution, HEK CCK2i4svR tumor xenografts; design: species or system nu/nu mice
# Method: In order to test the in vivo specificity of CRL-3 chelated with ^99mTc, HEK CCK2R and CCK2i4svR subcutaneous tumors were produced in nude mice according to known methods. Athymic female nu/nu mice were purchased from Harlan Laboratories and maintained on normal rodent chow and housed in a sterile environment on a standard 12 hour light and dark cycle for the duration of the study. All animal procedures were approved by the Purdue Animal Care and Use Committee in accordance with NIH guidelines.
# 150 microcurie of CRL-3 ^99mTc was injected intravenously into each mouse. FIGS. 3A-B show an overlay of whole-body radio-images on white light photographs of mice bearing images of HEK CCK2R (a, b) and HEK CCKRi4sv (c, d) tumor xenografts in nu/nu mice two hours after the administration of CRL-3 ^99mTc. Kidneys were shielded with a lead plate. Mice a and c had the radioactive conjugate administered along with 100 fold of free unlabeled targeting ligand. In mice b and d, only the radio-conjugate CRL-3 ^99mTc was administered. Arrows indicate location of the tumor.
# Following the above radio-imaging studies, animals were dissected and selected organs/tissues were collected into pre-weighed γ-counter tubes. Radioactivity of weighed tissues and test compounds were counted in a γ-counter. CPM values were decay corrected and results were calculated as % injected dose per gram of wet tissue (% ID/g). […]
# CCK2R = target: T2, CCK2R (Homo sapiens, UniProt P32239); assay: Binding of 99mTc conjugates to HEK-293 CCK2R cells (cell bound radioactivity); design: expressed in transfected cells; host or cells: HEK-293, G418-selected, from Dr. Mark Hellmich (University of Texas at Galveston)
# T2 sequence (P32239 1-447): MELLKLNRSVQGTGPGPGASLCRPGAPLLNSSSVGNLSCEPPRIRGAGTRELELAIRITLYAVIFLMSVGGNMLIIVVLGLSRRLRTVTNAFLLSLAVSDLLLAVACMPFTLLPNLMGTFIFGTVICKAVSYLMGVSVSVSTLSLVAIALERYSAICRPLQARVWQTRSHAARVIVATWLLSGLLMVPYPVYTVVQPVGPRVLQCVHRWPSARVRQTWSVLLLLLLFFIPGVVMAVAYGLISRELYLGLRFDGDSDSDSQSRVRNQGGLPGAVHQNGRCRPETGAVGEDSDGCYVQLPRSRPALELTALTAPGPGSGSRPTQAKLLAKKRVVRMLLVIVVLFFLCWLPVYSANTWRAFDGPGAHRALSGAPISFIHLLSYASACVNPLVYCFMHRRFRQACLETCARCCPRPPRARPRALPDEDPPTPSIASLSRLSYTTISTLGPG
# Method: as §1, §2
compound,measurement,setting,value
CC(C)(C)C(=O)CN1C(=O)[C@H](NC(=O)Nc2cccc(C(=O)NCCCCCCCC(=O)N[C@H](CCC(=O)O)C(=O)N[C@H](CCC(=O)NC[C@H](O)[C@@H](O)[C@H](O)[C@H](O)CO)C(=O)N[C@H](CCC(=O)O)C(=O)N[C@H](CCC(=O)NC[C@H](O)[C@@H](O)[C@H](O)[C@H](O)CO)C(=O)NC[C@@H]3[NH][99Tc]45[S]C[C@@H](C(=O)O)[N]4C(=O)[C@H](CC(=O)O)[N]5C3=O)c2)CN(C2CCCCC2)c2ccccc21 (stereo partly shown) [CRL-3 ^99mTc],Kd,CCK2i4svR,4 nM
same,"accumulation of radio-conjugate, whole-body radio-image","HEK CCK2i4svR tumors; 150 microcurie i.v., two hours after administration, kidneys shielded",accumulated mainly in the receptor expressing tumor with little or no accumulation in other tissues except the kidney
same,bio-distribution of radiotracer in organs/tissues,"HEK CCK2i4svR tumors; after radio-imaging, n=5 mice/group",only the tumor and kidneys show excessive accumulation of radiotracer
same,Kd,CCK2R,30 nM
